How the values were obtained:
KRAS G12D = molecular target: T1, KRAS G12D (Homo sapiens, UniProt P01116, G12D); assay: HTRF assay, KRAS G12D interaction with SOS1; format: biochemical; conditions: bins <500 nM / 500 nM to 1000 nM, read-out: Inhibition of KRAS G12D (IC50)
T1 construct: made in house; host or cells: E. coli, e.g. BL21 (DE3)

KRAS WT = molecular target: T2, KRAS WT (Homo sapiens, UniProt P01116); assay: HTRF assay, wildtype KRAS interaction with SOS1; format: biochemical; conditions: bins <500 nM / 500 nM to 1000 nM, read-out: Inhibition of KRAS WT (IC50)
T2 construct: made in house; host or cells: E. coli, e.g. BL21 (DE3)
T2 sequence (P01116 1-188 isoform P01116-2): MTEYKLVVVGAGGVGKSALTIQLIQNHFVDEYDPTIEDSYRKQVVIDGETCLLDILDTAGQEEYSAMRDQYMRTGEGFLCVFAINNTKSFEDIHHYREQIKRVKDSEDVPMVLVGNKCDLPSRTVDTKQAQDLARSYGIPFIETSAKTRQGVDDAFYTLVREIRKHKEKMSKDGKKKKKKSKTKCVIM

KRAS G12V = molecular target: T3, KRAS G12V (Homo sapiens, UniProt P01116, G12V); assay: HTRF assay, KRAS G12V interaction with SOS1; format: biochemical; conditions: bins <500 nM / 500 nM to 1000 nM, read-out: Inhibition of KRAS G12V (IC50)
T3 construct: made in house; host or cells: E. coli, e.g. BL21 (DE3)
T3 sequence (P01116 1-188 isoform P01116-2 G12V): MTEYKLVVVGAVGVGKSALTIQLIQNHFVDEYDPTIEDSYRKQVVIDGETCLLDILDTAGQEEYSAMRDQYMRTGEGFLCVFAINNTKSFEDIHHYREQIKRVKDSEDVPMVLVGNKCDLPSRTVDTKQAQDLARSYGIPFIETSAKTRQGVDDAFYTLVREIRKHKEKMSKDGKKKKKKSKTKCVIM

KRAS G12S = molecular target: T4, KRAS G12S (Homo sapiens, UniProt P01116, G12S); assay: HTRF assay, KRAS G12S interaction with SOS1; format: biochemical; conditions: bins <500 nM / 500 nM to 1000 nM, read-out: Inhibition of KRAS G12S (IC50)
T4 construct: made in house; host or cells: E. coli, e.g. BL21 (DE3)
T4 sequence (P01116 1-188 isoform P01116-2 G12S): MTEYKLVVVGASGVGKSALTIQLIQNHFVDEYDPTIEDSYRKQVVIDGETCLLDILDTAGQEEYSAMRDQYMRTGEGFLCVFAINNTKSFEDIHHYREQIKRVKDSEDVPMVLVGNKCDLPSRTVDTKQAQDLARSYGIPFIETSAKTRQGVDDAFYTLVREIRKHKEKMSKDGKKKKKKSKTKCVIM

MiaPaca2 cells = assay: Ras cellular assay, growth of cells with K-Ras G12C mutation; format: cell-based; conditions: Homo sapiens, MIA PaCa-2; cell proliferation assay; bins ≤500 nM / >500 nM; read-out: Inhibition of MiaPaca2 Cells (IC50)
Protocol: For example, this assay can be also used to assess selective growth inhibition of a mutant Ras protein relative to a wildtype or different mutant Ras protein.
MIA PaCa-2 (ATCC CRL-1420) and NCI-H1792 (ATCC CRL-5895) cell lines comprise a G12C mutation and can be used to assess Ras cellular signaling in vitro, e.g., in response to an inhibitor compound of the present disclosure. […] MIA PaCa-2 culture medium is prepared with DMEM/Ham's F12 (e.g., with stable glutamine, 10% FCS, and 2.5% horse serum. NCI-H1792 culture medium is prepared with RPMI 1640 (e.g., with stable glutamine) and 10% FCS.
On a first day (e.g., Day 1), Softagar (Select Agar, Invitrogen, 3% in ddH2O autoclaved) is boiled and tempered at 48° C. Appropriate culture medium (i.e., medium) is tempered to 37° C. Agar (3%) is diluted 1:5 in medium (=0.6%) and plated into 96 well plates (Corning, #3904), then incubated at room temperature for agar solidification. A 3% agar is diluted to 0.25% in medium (1:12 dilution) and tempered at 42° C. Cells are trypsinized, counted, and tempered at 37° C. The cells (e.g., MIA PaCa-2 at about 125-150 cells, NCI-H1792 at about 1000 cells) are resuspended in […] 0.25% Agar and plated, followed by incubation at room temperature for agar solidification. The wells are overlaid with […] of the medium. Sister wells in a separate plate are plated for time zero determination. All plates are incubated overnight at 37° C. and 5% CO2.
On a second day (e.g., Day 2), time zero values are measured. A […] volume of Cell Titer 96 Aqueous Solution (Promega) is added to each well and incubated in the dark at 37° C. and 5% CO2. Absorption can be measured at 490 nm and reference wavelength 660 nm. DMSO-prediluted test compounds are added to wells of interest, e.g., with HP Dispenser, to one or more desired concentrations (e.g., a final DMSO concentration of 0.3%).
On a tenth day (e.g., Day 10), absorption by wells treated with the test compounds and control wells are measured with, for example, Cell Titer 96 AQueous and analyzed in comparison to the time zero measurements. The IC50 values are determined using the four parameter fit. The resulting IC50 value is a measurement of the ability of the test compound to reduce cell growth of Ras-driven cells (e.g., tumor cell lines) in vitro and/or in vivo.

T1 sequence (P01116 1-188 isoform P01116-2 G12D): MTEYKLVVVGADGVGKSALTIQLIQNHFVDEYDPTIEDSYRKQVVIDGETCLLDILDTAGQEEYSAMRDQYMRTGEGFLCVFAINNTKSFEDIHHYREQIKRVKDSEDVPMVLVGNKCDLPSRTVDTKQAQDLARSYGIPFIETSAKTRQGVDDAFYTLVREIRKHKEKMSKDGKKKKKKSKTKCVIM

Compound Cc1c(C#N)ncn1C(=O)N1C[C@]2(CCCCN(c3nc(OC[C@@]45CCCN4C[C@H](F)C5)nc4c(F)c(-c5ccc(F)c6sc(N)c(C#N)c56)c(Cl)cc34)C2)[C@H]1C1(C)CC1 [Compound 111, 1-((1R,4R)-6-(7-(2-amino-3-cyano-7-fluorobenzo[b]thiophen-4-yl)-6-chloro-8-fluoro-2-(((2R,7aS)-2-fluorotetrahydro-1H-pyrrolizin-7a(5H)-yl)methoxy)quinazolin-4-yl)-1-(1-methylcyclopropyl)-2,6-diazaspiro[3.6]decane-2-carbonyl)-5-methyl-1H-imidazole-4-carbonitrile] has an IC50 (KRAS G12D) of less than 500 nM, an IC50 (KRAS WT) of less than 500 nM and an IC50 (KRAS G12V) of less than 500 nM. For the same compound, the IC50 (KRAS G12S) was less than 500 nM and the IC50 (MiaPaca2 cells) was no more than 500 nM.

C[C@@H]1[C@H](N(C)c2nc(OC[C@@]34CCCN3C[C@H](F)C4)nc3c(F)c(-c4ccc(F)c5sc(N)c(C#N)c45)c(Cl)cc23)CCN1C(=O)n1cnc(F)n1 [Compound 112, 2-amino-4-(6-chloro-8-fluoro-4-(((2R,3R)-1-(3-fluoro-1H-1,2,4-triazole-1-carbonyl)-2-methylpyrrolidin-3-yl)(methyl)amino)-2-(((2R,7aS)-2-fluorotetrahydro-1H-pyrrolizin-7a(5H)-yl)methoxy)quinazolin-7-yl)-7-fluorobenzo[b]thiophene-3-carbonitrile] showed an IC50 (KRAS G12D) of less than 500 nM, an IC50 (KRAS WT) of less than 500 nM and an IC50 (KRAS G12V) of less than 500 nM. For the same compound, the IC50 (KRAS G12S) was less than 500 nM and the IC50 (MiaPaca2 cells) was no more than 500 nM.

With CCN(c1nc(OC[C@@]23CCCN2C[C@H](F)C3)nc2c(F)c(-c3ccc(F)c4sc(N)c(C#N)c34)c(Cl)cc12)[C@@H]1CCN(C(=O)n2cnc(F)n2)[C@@H]1C [Compound 115, 2-amino-4-(6-chloro-4-(ethyl((2R,3R)-1-(3-fluoro-1H-1,2,4-triazole-1-carbonyl)-2-methylpyrrolidin-3-yl)amino)-8-fluoro-2-(((2R,7aS)-2-fluorotetrahydro-1H-pyrrolizin-7a(5H)-yl)methoxy)quinazolin-7-yl)-7-fluorobenzo[b]thiophene-3-carbonitrile] the IC50 (KRAS G12D) was less than 500 nM, the IC50 (KRAS WT) was less than 500 nM and the IC50 (KRAS G12V) was less than 500 nM. The IC50 (KRAS G12S) was less than 500 nM and the IC50 (MiaPaca2 cells) was no more than 500 nM.

Work on Cc1nccn1C(=O)N1CC[C@@]12CCN(c1nc(OC[C@@]34CCCN3C[C@H](F)C4)nc3c(F)c(-c4ccc(F)c5sc(N)c(C#N)c45)c(Cl)cc13)C2 [Compound 116, 2-amino-4-(6-chloro-8-fluoro-2-(((2R,7aS)-2-fluorotetrahydro-1H-pyrrolizin-7a(5H)-yl)methoxy)-4-((R)-1-(2-methyl-1H-imidazole-1-carbonyl)-1,6-diazaspiro[3.4]octan-6-yl)quinazolin-7-yl)-7-fluorobenzo[b]thiophene-3-carbonitrile] yielded an IC50 (KRAS G12D) of less than 500 nM, an IC50 (KRAS WT) of less than 500 nM and an IC50 (KRAS G12V) of less than 500 nM. For the same compound, the IC50 (KRAS G12S) was less than 500 nM and the IC50 (MiaPaca2 cells) was no more than 500 nM.

CN(c1nc(OC[C@@]23CCCN2C[C@H](F)C3)nc2c(F)c(-c3ccc(F)c4sc(N)c(C#N)c34)c(Cl)cc12)[C@@H]1CCN(C(=O)n2ccnc2)C1 [Compound 118, 4-(4-(((R)-1-(1H-imidazole-1-carbonyl)pyrrolidin-3-yl)(methyl)amino)-6-chloro-8-fluoro-2-(((2R,7aS)-2-fluorotetrahydro-1H-pyrrolizin-7a(5H)-yl)methoxy)quinazolin-7-yl)-2-amino-7-fluorobenzo[b]thiophene-3-carbonitrile] gave an IC50 (KRAS G12D) of less than 500 nM, an IC50 (KRAS WT) of less than 500 nM and an IC50 (KRAS G12V) of less than 500 nM. The IC50 (KRAS G12S) was less than 500 nM and the IC50 (MiaPaca2 cells) was no more than 500 nM.

N#Cc1c(N)sc2c(F)ccc(-c3c(Cl)cc4c(N5CCCCC6(CN(C(=O)n7ccnc7Br)C6)C5)nc(OC[C@@]56CCCN5C[C@H](F)C6)nc4c3F)c12 [Compound 119, 2-amino-4-(4-(2-(2-bromo-1H-imidazole-1-carbonyl)-2,6-diazaspiro[3.6]decan-6-yl)-6-chloro-8-fluoro-2-(((2R,7aS)-2-fluorotetrahydro-1H-pyrrolizin-7a(5H)-yl)methoxy)quinazolin-7-yl)-7-fluorobenzo[b]thiophene-3-carbonitrile] gave an IC50 (KRAS G12D) of less than 500 nM, an IC50 (KRAS WT) of less than 500 nM and an IC50 (KRAS G12V) of less than 500 nM. It also gave an IC50 (KRAS G12S) of less than 500 nM and an IC50 (MiaPaca2 cells) of no more than 500 nM.

With Cc1nccn1C(=O)N1CC[C@@H](N(C)c2nc(OC[C@@]34CCCN3C[C@H](F)C4)nc3c(F)c(-c4ccc(F)c5sc(N)c(C#N)c45)c(Cl)cc23)[C@H]1C [Compound 120, 2-amino-4-(6-chloro-8-fluoro-2-(((2R,7aS)-2-fluorotetrahydro-1H-pyrrolizin-7a(5H)-yl)methoxy)-4-(methyl((2R,3R)-2-methyl-1-(2-methyl-1H-imidazole-1-carbonyl)pyrrolidin-3-yl)amino)quinazolin-7-yl)-7-fluorobenzo[b]thiophene-3-carbonitrile] the IC50 (KRAS G12D) was less than 500 nM, the IC50 (KRAS WT) was less than 500 nM and the IC50 (KRAS G12V) was less than 500 nM. For the same compound, the IC50 (KRAS G12S) was less than 500 nM and the IC50 (MiaPaca2 cells) was no more than 500 nM.

With Cc1c(C#N)ncn1C(=O)N1CC[C@@]12CCN(c1nc(OC[C@@]34CCCN3C[C@H](F)C4)nc3c(F)c(-c4ccc(F)c5sc(N)c(C#N)c45)c(Cl)cc13)C2 [Compound 121, 1-((4R)-6-(7-(2-amino-3-cyano-7-fluorobenzo[b]thiophen-4-yl)-6-chloro-8-fluoro-2-(((2R,7aS)-2-fluorotetrahydro-1H-pyrrolizin-7a(5H)-yl)methoxy)quinazolin-4-yl)-1,6-diazaspiro[3.4]octane-1-carbonyl)-5-methyl-1H-imidazole-4-carbonitrile] the IC50 (KRAS G12D) was less than 500 nM, the IC50 (KRAS WT) was less than 500 nM and the IC50 (KRAS G12V) was less than 500 nM. For the same compound, the IC50 (KRAS G12S) was less than 500 nM and the IC50 (MiaPaca2 cells) was no more than 500 nM.

In the case of Cc1nccn1C(=O)N1CC2(CCN(c3nc(OC[C@@]45CCCN4C[C@H](F)C5)nc4c(F)c(-c5ccc(F)c6sc(N)c(C#N)c56)c(Cl)cc34)C2)C1 [Compound 123, 2-amino-4-(6-chloro-8-fluoro-2-(((2R,7aS)-2-fluorotetrahydro-1H-pyrrolizin-7a(5H)-yl)methoxy)-4-(2-(2-methyl-1H-imidazole-1-carbonyl)-2,6-diazaspiro[3.4]octan-6-yl)quinazolin-7-yl)-7-fluorobenzo[b]thiophene-3-carbonitrile], the IC50 (KRAS G12D) is reported as less than 500 nM, the IC50 (KRAS WT) is reported as less than 500 nM and the IC50 (KRAS G12V) is reported as less than 500 nM. It also gave an IC50 (KRAS G12S) of less than 500 nM and an IC50 (MiaPaca2 cells) of no more than 500 nM.

With C[C@@H]1[C@H](N(C)c2nc(OC[C@@]34CCCN3C[C@H](F)C4)nc3c(F)c(-c4ccc(F)c5sc(N)c(C#N)c45)c(Cl)cc23)CCN1C(=O)n1ccnc1 [Compound 124, 4-(4-(((2R,3R)-1-(1H-imidazole-1-carbonyl)-2-methylpyrrolidin-3-yl)(methyl)amino)-6-chloro-8-fluoro-2-(((2R,7aS)-2-fluorotetrahydro-1H-pyrrolizin-7a(5H)-yl)methoxy)quinazolin-7-yl)-2-amino-7-fluorobenzo[b]thiophene-3-carbonitrile] the IC50 (KRAS G12D) was less than 500 nM, the IC50 (KRAS WT) was less than 500 nM and the IC50 (KRAS G12V) was less than 500 nM. The IC50 (KRAS G12S) was less than 500 nM and the IC50 (MiaPaca2 cells) was no more than 500 nM.

With C[C@@H]1[C@H](N(C)c2nc(OC[C@@]34CCCN3C[C@H](F)C4)nc3c(F)c(-c4ccc(F)c5sc(N)c(C#N)c45)c(Cl)cc23)CCN1C(=O)n1ccc(C#N)n1 [Compound 126, 1-((2R,3R)-3-((7-(2-amino-3-cyano-7-fluorobenzo[b]thiophen-4-yl)-6-chloro-8-fluoro-2-(((2R,7aS)-2-fluorotetrahydro-1H-pyrrolizin-7a(5H)-yl)methoxy)quinazolin-4-yl)(methyl)amino)-2-methylpyrrolidine-1-carbonyl)-1H-pyrazole-3-carbonitrile] the IC50 (KRAS G12D) was less than 500 nM, the IC50 (KRAS WT) was less than 500 nM and the IC50 (KRAS G12V) was less than 500 nM. For the same compound, the IC50 (KRAS G12S) was less than 500 nM and the IC50 (MiaPaca2 cells) was no more than 500 nM.

Source: patent US20260217735A1, “HETEROCYCLES AND USES THEREOF” (Kumquat Biosciences Inc., priority 2023, published 2026)
